Results as given in patent publication US20250288584A1, “COMBINATIONS COMPRISING POSITIVE ALLOSTERIC MODULATORS OR ORTHOSTERIC AGONISTS OF METABOTROPIC GLUTAMATERGIC RECEPTOR SUBTYPE 2 AND THEIR USE” (JANSSEN PHARMACEUTICA NV, priority 2014, published 2025).
Several values for one entry are separate records, joined by “and”; a condition that tells them apart may be missing. Equal entries are not always repeated. Entries after “also recorded” stand apart in the source; their conditions may differ. Where two headings read alike, the source gives them in different places.

Columns and labels:
Assay type in all cases: in vivo, mice
[1] = tested on: 6 Hz (32 mA) psychomotor seizures; experiment: 6 Hz psychomotor seizure test, 32 mA (incl. TPE determination)
In short: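 Mice dosed s.c. into a loose skin fold (one compound p.o.) at 0.01 mL/g body weight. Focal seizures induced by corneal stimulation (6 Hz, 0.2 msec rectangular pulse, 3 sec) at 32 mA; absence of stun, forelimb clonus, vibrissae twitching and Straub-tail scored as protection. TPE determined in this assay; ED50 from evenly spaced doses.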

[2] = tested on: 6 Hz (44 mA) psychomotor seizures; experiment: 6 Hz psychomotor seizure test, 44 mA (alone, combination with LEV, isobolographic study); conditions: for ED50 / ED50 (95% CI) 44 mA: s.c.; for ED50: read-out: ED50 (95% CI) 44 mA
In short: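 Mice dosed s.c. or p.o. at 0.01 mL/g, alone or with LEV at fixed dose ratios proportional to ED50 values. Focal seizures induced by corneal stimulation (6 Hz, 0.2 msec pulse, 3 sec, 44 mA); animals without stun, forelimb clonus, vibrissae twitch or Straub-tail were counted as protected. ED50 values derived, with combinations analysed isobolographically.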

[3] = Minimal motor impairment (rotarod)

## CCCCn1ccc(N2CCC(c3ccc(F)cc3F)CC2)c(Cl)c1=O [Co. No. 25-a]
[1]; 1 mg/kg s.c., 0.25 h
  # protected/# tested: 1/8
[1]; 5 mg/kg s.c., 0.25 h
  # protected/# tested: 4/8
[1]; 10 mg/kg s.c., 0.25 h
  # protected/# tested: 2/4 and 4/8
[1]; 10 mg/kg s.c., 0.5 h
  # protected/# tested: 1/4
[1]; 10 mg/kg s.c., 1 h
  # protected/# tested: 1/4
[1]; 10 mg/kg s.c., 2 h
  # protected/# tested: 0/4
[1]; 10 mg/kg s.c., 4 h
  # protected/# tested: 0/4
[1]; 15 mg/kg s.c., 0.25 h
  # protected/# tested: 3/8
[1]; 20 mg/kg s.c., 0.25 h
  # protected/# tested: 4/4 and 8/8
[1]; 20 mg/kg s.c., 0.5 h
  # protected/# tested: 3/4
[1]; 20 mg/kg s.c., 1 h
  # protected/# tested: 4/4
[1]; 20 mg/kg s.c., 2 h
  # protected/# tested: 1/4
[1]; 20 mg/kg s.c., 4 h
  # protected/# tested: 1/4
[1]; Mus musculus, sc, at TPE, read-out: ED50 (95% CI) 32 mA
  ED50: 7.7 mg/kg
[1]; s.c., at TPE
  ED50 (95% CI) 32 mA: ED50 (95% CI): 7.7 mg/kg (2.3 to 18.4)
[2]; 10 mg/kg s.c.
  activity when administered alone: did not protect; also recorded: Co. No. 25-a (s.c.) 10 mg/kg tested in combination with LEV (i.p.)-Co. No. 25-a 10 mg/kg, not active when administered alone
[2]; Mus musculus, sc, 0.25 h, 5 mg/kg s.c., 0.25 h, read-out: # protected/# tested
  responders at 5 mg/kg: 0%
[2]; Mus musculus, sc, 0.25 h, 10 mg/kg s.c., 0.25 h, read-out: # protected/# tested (converted)
  responders at 10 mg/kg: 0%
[2]; Mus musculus, sc, 0.25 h, 20 mg/kg s.c., 0.25 h, read-out: # protected/# tested (converted)
  responders at 20 mg/kg: 25%
[2]; Mus musculus, sc, 0.25 h, 30 mg/kg s.c., 0.25 h, read-out: # protected/# tested (converted)
  responders at 30 mg/kg: 37.5%
[2]; Mus musculus, sc, 0.25 h, 40 mg/kg s.c., 0.25 h, read-out: # protected/# tested (converted)
  responders at 40 mg/kg: 87.5%
[2]; Mus musculus, sc, 0.25 h, 0.25 hr TPE
  ED50: 29.1 mg/kg
[2]; Mus musculus, sc, 1 h, 1 hr TPE
  ED50: 25.9 mg/kg
[2]; 0.25 hr TPE
  ED50 (95% CI) 44 mA: ED50 (95% CI): 29.1 mg/kg (21.6 to 39.6)
[2]; 1 hr TPE
  ED50 (95% CI) 44 mA: 1 hr TPE: 25.9 mg/kg
[3]; 1 mg/kg s.c., 0.25 h, 32 mA group
  # rotarod motor impairment/# tested: 0/8
[3]; 5 mg/kg s.c., 0.25 h, 32 mA group
  # rotarod motor impairment/# tested: 0/8
[3]; 5 mg/kg s.c., 0.25 h, 44 mA group
  # rotarod motor impairment/# tested: 1/8
[3]; 10 mg/kg s.c., 0.25 h, 32 mA group
  # rotarod motor impairment/# tested: 0/4 and 0/8
[3]; 10 mg/kg s.c., 0.25 h, 44 mA group
  # rotarod motor impairment/# tested: 0/8
[3]; 10 mg/kg s.c., 0.5 h, 32 mA group
  # rotarod motor impairment/# tested: 0/4
[3]; 10 mg/kg s.c., 1 h, 32 mA group
  # rotarod motor impairment/# tested: 1/4
[3]; 10 mg/kg s.c., 2 h, 32 mA group
  # rotarod motor impairment/# tested: 0/4
[3]; 10 mg/kg s.c., 4 h, 32 mA group
  # rotarod motor impairment/# tested: 0/4
[3]; 15 mg/kg s.c., 0.25 h, 32 mA group
  # rotarod motor impairment/# tested: 0/8
[3]; 20 mg/kg s.c., 0.25 h, 32 mA group
  # rotarod motor impairment/# tested: 0/4 and 0/8
[3]; 20 mg/kg s.c., 0.25 h, 44 mA group
  # rotarod motor impairment/# tested: 0/8
[3]; 20 mg/kg s.c., 0.5 h, 32 mA group
  # rotarod motor impairment/# tested: 1/4
[3]; 20 mg/kg s.c., 1 h, 32 mA group
  # rotarod motor impairment/# tested: 1/4
[3]; 20 mg/kg s.c., 2 h, 32 mA group
  # rotarod motor impairment/# tested: 0/4
[3]; 20 mg/kg s.c., 4 h, 32 mA group
  # rotarod motor impairment/# tested: 1/4
[3]; 30 mg/kg s.c., 0.25 h, 44 mA group
  # rotarod motor impairment/# tested: 0/8
[3]; 40 mg/kg s.c., 0.25 h, 44 mA group
  # rotarod motor impairment/# tested: 0/8
